Results reported in ChEMBL document CHEMBL3817755, “Design, synthesis and biological evaluation of indazolepyrimidine based derivatives as anticancer agents with anti-angiogenic and antiproliferative activities” (Medchemcomm, 2016).

Molecular target: Vascular endothelial growth factor receptor 2 (Homo sapiens, UniProt P35968)
Assay: Inhibition of VEGFR-2 (unknown origin) at 10 uM after 1 hr by Z'LYTE assay

Sequence of Vascular endothelial growth factor receptor 2 (P35968 whole entry): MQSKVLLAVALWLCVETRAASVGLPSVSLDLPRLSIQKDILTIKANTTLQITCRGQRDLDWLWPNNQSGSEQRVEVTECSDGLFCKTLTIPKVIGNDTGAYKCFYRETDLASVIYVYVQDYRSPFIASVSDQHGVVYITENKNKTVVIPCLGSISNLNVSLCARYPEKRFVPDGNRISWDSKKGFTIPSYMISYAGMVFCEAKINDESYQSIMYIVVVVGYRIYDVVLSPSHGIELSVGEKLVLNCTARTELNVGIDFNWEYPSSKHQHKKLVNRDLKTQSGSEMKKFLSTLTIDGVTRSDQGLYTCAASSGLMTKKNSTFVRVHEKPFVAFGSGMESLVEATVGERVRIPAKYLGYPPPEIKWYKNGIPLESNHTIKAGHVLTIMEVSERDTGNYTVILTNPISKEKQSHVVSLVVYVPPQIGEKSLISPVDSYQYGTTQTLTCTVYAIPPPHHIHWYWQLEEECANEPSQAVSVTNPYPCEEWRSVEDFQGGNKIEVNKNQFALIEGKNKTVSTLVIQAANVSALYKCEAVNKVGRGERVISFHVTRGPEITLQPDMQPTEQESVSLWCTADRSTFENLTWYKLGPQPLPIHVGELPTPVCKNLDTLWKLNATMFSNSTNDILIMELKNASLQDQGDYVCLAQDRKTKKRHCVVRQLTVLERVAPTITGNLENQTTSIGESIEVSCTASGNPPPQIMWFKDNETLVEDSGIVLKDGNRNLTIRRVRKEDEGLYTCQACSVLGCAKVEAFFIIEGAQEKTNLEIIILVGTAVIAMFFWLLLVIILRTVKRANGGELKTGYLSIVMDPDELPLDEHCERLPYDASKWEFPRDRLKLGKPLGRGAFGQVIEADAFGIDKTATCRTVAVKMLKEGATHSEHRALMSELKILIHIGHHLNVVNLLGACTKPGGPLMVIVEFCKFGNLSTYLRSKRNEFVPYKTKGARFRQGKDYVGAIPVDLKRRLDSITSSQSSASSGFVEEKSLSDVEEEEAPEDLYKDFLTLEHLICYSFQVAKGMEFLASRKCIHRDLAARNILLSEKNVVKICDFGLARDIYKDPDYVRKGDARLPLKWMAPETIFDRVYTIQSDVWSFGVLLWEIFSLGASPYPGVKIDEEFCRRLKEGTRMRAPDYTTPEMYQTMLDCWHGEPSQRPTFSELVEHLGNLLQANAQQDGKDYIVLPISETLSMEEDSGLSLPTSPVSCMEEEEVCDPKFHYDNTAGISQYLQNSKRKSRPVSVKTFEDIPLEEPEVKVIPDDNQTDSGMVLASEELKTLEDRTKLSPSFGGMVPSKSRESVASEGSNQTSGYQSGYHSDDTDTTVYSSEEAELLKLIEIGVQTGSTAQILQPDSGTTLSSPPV

Compound | inhibition
Cc1c2ccc(Nc3ccnc(Nc4ccc(F)cc4)n3)cc2nn1C | 63.8%
Cc1c2ccc(Nc3ccnc(Nc4ccc(S(N)(=O)=O)cc4)n3)cc2nn1C | 60.8%
